How the values were obtained:
[1] = target: T1, ΔF508-CFTR (Homo sapiens, UniProt P13569, DEL508-508); assay: CFTR cell surface levels using HRP-tagged ΔF508-CFTR expressing CFBE cells, in the presence of a co-corrector; type: cell-based; conditions: HRP-tagged ΔF508-CFTR expressing CFBE cells, in the presence of 3 μM co-corrector; for EC50: read-out: EC50
T1 construct: host or cells: CFBE41o-, doxycycline-inducible
How it was run: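 Cells were seeded with 0.5 μg/mL doxycycline and held 68 h at 37 °C. Test compounds plus 3 μM co-corrector (final 0.1% DMSO) were then added for 20 h at 33 °C. Washed cells received HRP substrate, and luminescence was normalized between DMSO and 3 μM co-corrector controls.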

[2] = target: T1, ΔF508-CFTR; assay: CFTR cell surface levels using HRP-tagged ΔF508-CFTR expressing CFBE cells, intrinsic corrector capacity; type: cell-based; conditions: HRP-tagged ΔF508-CFTR CFBE41o- cells, compounds alone (intrinsic corrector capacity), 20 hours at 33° C.; for % Activation: positive control 3 μM corrector; for EC50: read-out: EC50
How it was run: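 Here the cells express ΔF508-CFTR with horseradish peroxidase inserted in extracellular loop 4, so only rescued channel at the surface gives luminescent signal. Compounds act on their own, 20 h at the reduced temperature of 33 °C; values are percent activity relative to DMSO and a 3 μM corrector.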

T1 sequence (P13569 with tags, fused parts or gaps DEL508-508): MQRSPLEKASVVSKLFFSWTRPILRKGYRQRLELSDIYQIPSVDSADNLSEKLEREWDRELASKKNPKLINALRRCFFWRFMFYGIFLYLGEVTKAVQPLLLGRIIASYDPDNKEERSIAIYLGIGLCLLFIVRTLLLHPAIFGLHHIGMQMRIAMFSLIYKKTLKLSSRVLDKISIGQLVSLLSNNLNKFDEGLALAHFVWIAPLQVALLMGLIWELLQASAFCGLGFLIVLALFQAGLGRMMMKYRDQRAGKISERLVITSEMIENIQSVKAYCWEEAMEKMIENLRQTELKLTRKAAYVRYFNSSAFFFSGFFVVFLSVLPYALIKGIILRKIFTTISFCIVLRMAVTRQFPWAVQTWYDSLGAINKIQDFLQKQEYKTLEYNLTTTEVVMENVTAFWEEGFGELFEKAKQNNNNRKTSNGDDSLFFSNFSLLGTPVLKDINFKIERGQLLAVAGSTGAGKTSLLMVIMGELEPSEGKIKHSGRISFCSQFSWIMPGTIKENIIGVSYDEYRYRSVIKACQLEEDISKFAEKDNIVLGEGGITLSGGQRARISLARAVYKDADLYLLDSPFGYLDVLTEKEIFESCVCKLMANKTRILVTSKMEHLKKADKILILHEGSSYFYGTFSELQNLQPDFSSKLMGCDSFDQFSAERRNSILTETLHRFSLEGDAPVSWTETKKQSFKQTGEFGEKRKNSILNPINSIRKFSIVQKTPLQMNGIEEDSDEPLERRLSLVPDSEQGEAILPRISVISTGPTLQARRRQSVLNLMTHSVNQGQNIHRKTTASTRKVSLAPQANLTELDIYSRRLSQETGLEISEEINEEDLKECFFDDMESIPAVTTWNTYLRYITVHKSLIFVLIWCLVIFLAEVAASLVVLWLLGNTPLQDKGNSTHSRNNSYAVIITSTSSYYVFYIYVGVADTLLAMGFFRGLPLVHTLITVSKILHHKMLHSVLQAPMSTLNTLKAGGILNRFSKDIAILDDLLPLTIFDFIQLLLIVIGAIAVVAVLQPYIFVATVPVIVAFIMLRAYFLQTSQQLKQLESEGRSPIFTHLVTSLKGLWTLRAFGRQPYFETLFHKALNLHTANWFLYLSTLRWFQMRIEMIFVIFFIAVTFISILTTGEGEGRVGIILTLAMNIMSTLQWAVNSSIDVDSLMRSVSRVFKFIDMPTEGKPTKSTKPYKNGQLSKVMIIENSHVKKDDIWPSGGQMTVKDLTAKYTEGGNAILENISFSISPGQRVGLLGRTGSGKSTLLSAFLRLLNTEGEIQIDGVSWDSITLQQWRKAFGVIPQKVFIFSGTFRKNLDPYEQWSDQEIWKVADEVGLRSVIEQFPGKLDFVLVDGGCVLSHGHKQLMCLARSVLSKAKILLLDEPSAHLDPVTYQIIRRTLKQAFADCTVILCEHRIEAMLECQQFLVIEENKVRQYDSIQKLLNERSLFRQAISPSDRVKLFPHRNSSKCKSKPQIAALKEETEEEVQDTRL

Structure (SMILES)	% Activation [1]	EC50 [1]	% Activation [2]	EC50 [2]
CO[C@H]1CCN(c2cc(C(=O)O)nc3c2c(C)nn3-c2ccccc2)C1 [compound 296, 4-[(3S)-3-methoxypyrrolidin-1-yl]-3-methyl-1-phenyl-1H-pyrazolo[3,4-b]pyridine-6-carboxylic acid]	164%	2510 nM	29.42%	4170 nM
Cc1nn(-c2ccccc2)c2nc(C(=O)O)cc(N3CCC(F)CC3)c12 [compound 297, 4-(4-fluoropiperidin-1-yl)-3-methyl-1-phenyl-1H-pyrazolo[3,4-b]pyridine-6-carboxylic acid]	184.07%	3340 nM	50.78%	2230 nM
Cc1nn(-c2ccccc2)c2nc(C(=O)O)cc(N3CC[C@@H](F)C3)c12 [compound 298, 4-[(3R)-3-fluoropyrrolidin-1-yl]-3-methyl-1-phenyl-1H-pyrazolo[3,4-b]pyridine-6-carboxylic acid]	206.45%	2440 nM	52.345%	2510 nM
Cc1nn(-c2ccccc2)c2nc(C(=O)O)cc(N3CCC(F)(F)C3)c12 [compound 299, 4-(3,3-difluoropyrrolidin-1-yl)-3-methyl-1-phenyl-1H-pyrazolo[3,4-b]pyridine-6-carboxylic acid]	194.8%	2510 nM	51.845%	2510 nM
Cc1nn(-c2ccccc2)c2nc(C(=O)O)cc(N3CC[C@H](F)C3)c12 [compound 300, 4-[(3S)-3-fluoropyrrolidin-1-yl]-3-methyl-1-phenyl-1H-pyrazolo[3,4-b]pyridine-6-carboxylic acid]	165%	2510 nM	41.065%	2510 nM
Cc1nn(-c2ccccc2)c2nc(C(=O)O)cc(N3CCN4C(=O)OCC4C3)c12 (stereo not shown) [compound 301, 3-methyl-4-(3-oxotetrahydro-3H-[1,3]oxazolo[3,4-a]pyrazin-7(1H)-yl)-1-phenyl-1H-pyrazolo[3,4-b]pyridine-6-carboxylic acid]	117.35%	7500 nM	12.64%	7500 nM
Cc1nn(-c2ccccc2)c2nc(C(=O)O)cc(N3CC(N4CCOCC4)C3)c12 [compound 302, 3-methyl-4-[3-(morpholin-4-yl)azetidin-1-yl]-1-phenyl-1H-pyrazolo[3,4-b]pyridine-6-carboxylic acid]	131.6%	7500 nM	18.02%	7500 nM
Cc1nn(-c2ccccc2)c2nc(C(=O)O)cc(N3CCC(NS(C)(=O)=O)CC3)c12 [compound 303, 4-{4-[(methanesulfonyl)amino]piperidin-1-yl}-3-methyl-1-phenyl-1H-pyrazolo[3,4-b]pyridine-6-carboxylic acid]	123.5%	7500 nM	10.878%	7500 nM
Cc1nn(-c2ccccc2)c2nc(C(=O)O)cc(N3CC4CC4C3)c12 (stereo not shown) [compound 304, 4-(3-azabicyclo[3.1.0]hexan-3-yl)-3-methyl-1-phenyl-1H-pyrazolo[3,4-b]pyridine-6-carboxylic acid]	254.9%	1990 nM	98.425%	2510 nM
Cc1nn(-c2ccccc2)c2nc(C(=O)O)cc(N3CCC(C(=O)N4CCCC4)CC3)c12 [compound 305, 3-methyl-1-phenyl-4-[4-(pyrrolidine-1-carbonyl)piperidin-1-yl]-1H-pyrazolo[3,4-b]pyridine-6-carboxylic acid]	170.5%	1440 nM	29.97%	3120 nM
Cc1nn(-c2ccccc2)c2nc(C(=O)O)cc(N3CC4(CCOC4)C3)c12 [compound 306, 3-methyl-4-(6-oxa-2-azaspiro[3.4]octan-2-yl)-1-phenyl-1H-pyrazolo[3,4-b]pyridine-6-carboxylic acid]	147.8%	2510 nM	22.69%	7500 nM
Cc1nn(-c2ccccc2)c2nc(C(=O)O)cc(N3CC4(CCCC4)C3)c12 [compound 307, 4-(2-azaspiro[3.4]octan-2-yl)-3-methyl-1-phenyl-1H-pyrazolo[3,4-b]pyridine-6-carboxylic acid]	233.4%	1540 nM	77.423%	1920 nM
Cc1nn(-c2ccccc2)c2nc(C(=O)O)cc(N3CC4(CCCOC4)C3)c12 [compound 308, 3-methyl-4-(6-oxa-2-azaspiro[3.5]nonan-2-yl)-1-phenyl-1H-pyrazolo[3,4-b]pyridine-6-carboxylic acid]	221.85%	2510 nM	59.78%	2510 nM
Cc1nn(-c2ccccc2)c2nc(C(=O)O)cc(N3CC4(CCCCC4)C3)c12 [compound 309, 4-(2-azaspiro[3.5]nonan-2-yl)-3-methyl-1-phenyl-1H-pyrazolo[3,4-b]pyridine-6-carboxylic acid]	237.3%	1330 nM	67.305%	1330 nM
Cc1nn(-c2ccccc2)c2nc(C(=O)O)cc(N3CCCC4(CC4)C3)c12 [compound 310, 4-(5-azaspiro[2.5]octan-5-yl)-3-methyl-1-phenyl-1H-pyrazolo[3,4-b]pyridine-6-carboxylic acid]	199.65%	1610 nM	88.73%	1890 nM
Cc1nn(-c2ccccc2)c2nc(C(=O)O)cc(N3CCC4(CCCO4)C3)c12 (stereo not shown) [compound 311, 3-methyl-4-(1-oxa-7-azaspiro[4.4]nonan-7-yl)-1-phenyl-1H-pyrazolo[3,4-b]pyridine-6-carboxylic acid]	195.5%	2140 nM	53.7%	2510 nM
Cc1nn(-c2ccccc2)c2nc(C(=O)O)cc(N3CC4(CCCCO4)C3)c12 [compound 312, 3-methyl-4-(5-oxa-2-azaspiro[3.5]nonan-2-yl)-1-phenyl-1H-pyrazolo[3,4-b]pyridine-6-carboxylic acid]	185%	2320 nM	61.325%	2510 nM
Cc1nn(-c2ccccc2)c2nc(C(=O)O)cc(N3CCC4(CCNC4=O)C3)c12 (stereo not shown) [compound 313, 3-methyl-4-(6-oxo-2,7-diazaspiro[4.4]nonan-2-yl)-1-phenyl-1H-pyrazolo[3,4-b]pyridine-6-carboxylic acid]	132.2%	7500 nM	11.239%	7500 nM
Cc1nn(-c2ccccc2)c2nc(C(=O)O)cc(N3CCC([C@H](F)CN(C)C)CC3)c12 [compound 314, 4-{4-[(1S)-2-(dimethylamino)-1-fluoroethyl]piperidin-1-yl}-3-methyl-1-phenyl-1H-pyrazolo[3,4-b]pyridine-6-carboxylic acid]	250.1%	2510 nM	92.46%	2510 nM
Cc1nn(-c2ccccc2)c2nc(C(=O)O)cc(N3CCCOCC3)c12 [compound 315, 3-methyl-4-(1,4-oxazepan-4-yl)-1-phenyl-1H-pyrazolo[3,4-b]pyridine-6-carboxylic acid]	150.3%	4170 nM	24.61%	3430 nM
CC(C)c1nn(-c2cccc(F)c2)c2nc(C(=O)O)cc(-c3cnc(N(C)C4CCOCC4)nc3)c12 [compound 316, 1-(3-fluorophenyl)-4-{2-[methyl(oxan-4-yl)amino]pyrimidin-5-yl}-3-(propan-2-yl)-1H-pyrazolo[3,4-b]pyridine-6-carboxylic acid]	435.6%	308 nM	218.87%	565 nM
CC(C)c1nn(-c2cc(F)cc(F)c2)c2nc(C(=O)O)cc(-c3cnc(N(C)C4CCOCC4)nc3)c12 [compound 317, 1-(3,5-difluorophenyl)-4-{2-[methyl(oxan-4-yl)amino]pyrimidin-5-yl}-3-(propan-2-yl)-1H-pyrazolo[3,4-b]pyridine-6-carboxylic acid]	433.4%	972 nM	216.25%	695 nM
COCCOC1CCN(c2cc(C(=O)O)nc3c2c(C)nn3-c2ccccc2)CC1 [compound 318, 4-[4-(2-methoxyethoxy)piperidin-1-yl]-3-methyl-1-phenyl-1H-pyrazolo[3,4-b]pyridine-6-carboxylic acid]	323.72%	1860 nM	134.15%	2630 nM
Cc1nn(-c2ccccc2)c2nc(C(=O)O)cc(N3CCC(C(=O)N(C)C)CC3)c12 [compound 319, 4-[4-(dimethylcarbamoyl)piperidin-1-yl]-3-methyl-1-phenyl-1H-pyrazolo[3,4-b]pyridine-6-carboxylic acid]	270.75%	4170 nM	80.905%	2510 nM
Cc1nn(-c2ccccc2)c2nc(C(=O)O)cc(N3CCCN(S(C)(=O)=O)CC3)c12 [compound 320, 4-[4-(methanesulfonyl)-1,4-diazepan-1-yl]-3-methyl-1-phenyl-1H-pyrazolo[3,4-b]pyridine-6-carboxylic acid]	166.3%	3340 nM	19.37%	> 10000 nM

Reference: patent publication US9796711B2, “Substituted pyrazolo[3,4-b]pyridin-6-carboxylic acids and method of use” (AbbVie S.àr.l., priority 2015, dated 2017)
